From US10457691B2, “Macrocyclic kinase inhibitors and uses thereof” (Dana-Farber Cancer Institute, Inc., priority 2014, dated 2019)

How the values were obtained:
Format in all cases: biochemical
Conditions in all cases: read-out: Activity of the protein kinase when treated with compound I-1 (% control)
ABL = ABL (Homo sapiens, UniProt P00519); test: Protein kinase assay ([γ-32P] ATP), ABL
Experimental: (§1) In another set of experiments, the activities of the compounds described herein against various protein kinases were determined according to the methods reported in Hastie et al., Nature Protocols, 2006, 1, 968-971.
(§2) Enzyme dilution buffer. This buffer consisted of 50 mM Tris-HCl, pH 7.5, 0.1 mM EGTA, 1 mg ml^−1 bovine serum albumin and 0.1% (vol/vol) 2-mercaptoethanol.
(§3) 10× concentrated assay buffer. An assay buffer of 500 mM Tris-HCl, pH 7.5, 1 mM EGTA, and 100 mM magnesium acetate was used for assay of a wide variety of protein kinases. In some experiments, other cofactors were included (e.g., calcium ions and calmodulin were included for assay of calcium-calmodulindependent protein kinases).
(§4) 1 mM [γ-^32P] ATP. The specific activity of the [γ-^32P] ATP solution was 1×10^5 to 1×10^6 c.p.m. per nmol depending on what was needed to produce an optimal signal/noise ratio. […] To measure the concentration of ATP, a sample of such a stock solution was diluted to 20 μM, and the absorbance of the diluted sample was measured at 259 nm. The absorbance of a 20-μM stock solution of ATP at 259 nm was about 0.31. […] ATP to produce a radioactivity of 1×10^5 to 1×10^6 c.p.m. per nmol. […]
(§5) 13) Measure radioactivity in the samples by Cerenkov counting (e.g., without liquid scintillation fluid) in a liquid scintillation counter using a “^32P program”. […]

CK1δ = CK1δ (Homo sapiens, UniProt P48730); test: Protein kinase assay ([γ-32P] ATP), CK1δ
Experimental: as §1, §2, §3, §4, §5

DAPK1 = DAPK1 (Homo sapiens, UniProt P53355); test: Protein kinase assay ([γ-32P] ATP), DAPK1
Experimental: as §1, §2, §3, §4, §5

EIF2AK3 = EIF2AK3 (Homo sapiens, UniProt Q9NZJ5); test: Protein kinase assay ([γ-32P] ATP), EIF2AK3
Chain of EIF2AK3 (Q9NZJ5 30-1116): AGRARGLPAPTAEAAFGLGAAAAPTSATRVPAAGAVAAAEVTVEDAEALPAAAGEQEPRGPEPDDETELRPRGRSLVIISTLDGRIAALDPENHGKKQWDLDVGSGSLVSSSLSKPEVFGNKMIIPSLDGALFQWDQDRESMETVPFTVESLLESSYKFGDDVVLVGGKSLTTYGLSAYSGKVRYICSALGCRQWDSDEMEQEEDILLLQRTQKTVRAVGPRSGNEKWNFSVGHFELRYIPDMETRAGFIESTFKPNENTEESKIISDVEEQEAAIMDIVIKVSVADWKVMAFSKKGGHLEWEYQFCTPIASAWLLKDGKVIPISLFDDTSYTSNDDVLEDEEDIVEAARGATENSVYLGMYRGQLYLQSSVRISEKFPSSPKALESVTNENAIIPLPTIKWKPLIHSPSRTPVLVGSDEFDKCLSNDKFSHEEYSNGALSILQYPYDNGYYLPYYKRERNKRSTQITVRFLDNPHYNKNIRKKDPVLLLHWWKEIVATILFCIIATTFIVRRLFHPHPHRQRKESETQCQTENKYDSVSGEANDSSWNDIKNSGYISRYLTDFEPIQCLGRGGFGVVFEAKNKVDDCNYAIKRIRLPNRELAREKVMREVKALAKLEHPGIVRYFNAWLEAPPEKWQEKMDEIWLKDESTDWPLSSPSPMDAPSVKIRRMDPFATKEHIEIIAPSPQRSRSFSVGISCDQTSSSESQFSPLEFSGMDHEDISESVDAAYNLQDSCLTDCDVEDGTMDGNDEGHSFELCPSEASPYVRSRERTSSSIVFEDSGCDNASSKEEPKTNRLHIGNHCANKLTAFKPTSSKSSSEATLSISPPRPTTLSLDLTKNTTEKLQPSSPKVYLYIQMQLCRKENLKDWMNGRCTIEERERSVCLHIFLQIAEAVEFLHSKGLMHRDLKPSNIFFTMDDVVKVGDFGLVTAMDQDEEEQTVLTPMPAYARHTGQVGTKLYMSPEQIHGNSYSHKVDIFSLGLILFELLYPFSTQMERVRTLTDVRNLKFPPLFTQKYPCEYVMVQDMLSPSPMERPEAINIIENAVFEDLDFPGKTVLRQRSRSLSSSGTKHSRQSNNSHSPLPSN
Experimental: as §1, §2, §3, §4, §5

MAPKAP-K3 = MAPKAP-K3 (Homo sapiens, UniProt Q16644); test: Protein kinase assay ([γ-32P] ATP), MAPKAP-K3
Experimental: as §1, §2, §3, §4, §5

MARK3 = MARK3 (Homo sapiens, UniProt P27448); test: Protein kinase assay ([γ-32P] ATP), MARK3
Chain of MARK3 (P27448 whole entry): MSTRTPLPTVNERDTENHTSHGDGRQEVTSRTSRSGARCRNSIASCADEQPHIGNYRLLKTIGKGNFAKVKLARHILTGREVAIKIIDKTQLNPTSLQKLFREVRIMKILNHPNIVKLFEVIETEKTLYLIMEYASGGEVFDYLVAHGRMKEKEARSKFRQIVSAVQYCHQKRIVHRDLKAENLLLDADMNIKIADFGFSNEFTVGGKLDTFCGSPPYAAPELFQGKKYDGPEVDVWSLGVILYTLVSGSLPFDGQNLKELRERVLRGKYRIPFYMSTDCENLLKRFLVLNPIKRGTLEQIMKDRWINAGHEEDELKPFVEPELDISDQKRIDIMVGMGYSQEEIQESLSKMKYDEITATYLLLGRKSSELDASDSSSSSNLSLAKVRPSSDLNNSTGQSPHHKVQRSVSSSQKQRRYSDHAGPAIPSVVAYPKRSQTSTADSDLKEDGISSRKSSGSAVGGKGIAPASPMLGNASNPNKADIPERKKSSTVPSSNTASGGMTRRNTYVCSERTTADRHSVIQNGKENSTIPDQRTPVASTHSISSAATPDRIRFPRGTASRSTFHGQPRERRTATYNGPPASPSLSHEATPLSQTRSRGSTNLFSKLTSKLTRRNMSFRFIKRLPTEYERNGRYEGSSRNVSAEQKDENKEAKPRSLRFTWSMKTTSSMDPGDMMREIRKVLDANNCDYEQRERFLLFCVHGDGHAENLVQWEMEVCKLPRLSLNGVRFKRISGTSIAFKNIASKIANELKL
Experimental: as §1, §2, §3, §4, §5

MARK4 = MARK4 (Homo sapiens, UniProt Q96L34); test: Protein kinase assay ([γ-32P] ATP), MARK4
Experimental: as §1, §2, §3, §4, §5

MPSK1 = MPSK1 (Homo sapiens, UniProt O75716); test: Protein kinase assay ([γ-32P] ATP), MPSK1
Experimental: as §1, §2, §3, §4, §5

PAK4 = PAK4 (Homo sapiens, UniProt O96013); test: Protein kinase assay ([γ-32P] ATP), PAK4
Chain of PAK4 (O96013 whole entry): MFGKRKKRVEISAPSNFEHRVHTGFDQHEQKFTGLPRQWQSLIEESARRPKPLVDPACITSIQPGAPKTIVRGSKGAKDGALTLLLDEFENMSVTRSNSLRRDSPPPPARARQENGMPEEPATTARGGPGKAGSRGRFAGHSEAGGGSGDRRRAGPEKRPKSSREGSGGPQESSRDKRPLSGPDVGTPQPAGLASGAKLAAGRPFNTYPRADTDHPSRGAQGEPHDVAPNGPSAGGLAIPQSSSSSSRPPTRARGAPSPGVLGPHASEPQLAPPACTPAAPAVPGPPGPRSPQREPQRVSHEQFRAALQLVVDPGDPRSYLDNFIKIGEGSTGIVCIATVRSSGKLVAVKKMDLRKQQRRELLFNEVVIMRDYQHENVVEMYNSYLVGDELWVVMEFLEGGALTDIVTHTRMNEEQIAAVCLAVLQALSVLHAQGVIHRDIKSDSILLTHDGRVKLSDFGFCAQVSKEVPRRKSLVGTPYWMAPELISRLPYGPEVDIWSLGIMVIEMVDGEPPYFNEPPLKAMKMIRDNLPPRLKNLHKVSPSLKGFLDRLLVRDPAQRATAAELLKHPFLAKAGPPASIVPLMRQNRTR
Experimental: as §1, §2, §3, §4, §5

PAK6 = PAK6 (Homo sapiens, UniProt Q9NQU5); test: Protein kinase assay ([γ-32P] ATP), PAK6
Chain of PAK6 (Q9NQU5 whole entry): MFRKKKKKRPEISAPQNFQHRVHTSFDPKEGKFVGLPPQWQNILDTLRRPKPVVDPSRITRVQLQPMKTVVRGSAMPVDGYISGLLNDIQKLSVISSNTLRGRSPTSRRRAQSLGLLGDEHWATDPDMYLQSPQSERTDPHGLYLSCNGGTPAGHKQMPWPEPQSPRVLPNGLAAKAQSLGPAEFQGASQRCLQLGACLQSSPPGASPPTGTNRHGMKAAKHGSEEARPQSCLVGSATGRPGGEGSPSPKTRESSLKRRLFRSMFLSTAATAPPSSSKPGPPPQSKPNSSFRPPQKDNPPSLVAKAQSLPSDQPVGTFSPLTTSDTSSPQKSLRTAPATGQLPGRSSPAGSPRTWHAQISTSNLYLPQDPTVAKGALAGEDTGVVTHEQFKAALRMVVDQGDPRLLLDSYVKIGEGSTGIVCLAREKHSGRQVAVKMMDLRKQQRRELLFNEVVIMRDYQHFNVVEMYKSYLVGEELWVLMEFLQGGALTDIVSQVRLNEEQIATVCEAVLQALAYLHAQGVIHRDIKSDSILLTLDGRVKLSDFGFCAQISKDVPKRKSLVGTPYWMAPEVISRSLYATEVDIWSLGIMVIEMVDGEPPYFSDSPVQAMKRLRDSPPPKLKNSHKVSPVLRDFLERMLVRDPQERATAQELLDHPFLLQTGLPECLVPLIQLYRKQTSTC
Experimental: as §1, §2, §3, §4, §5

PKBb = PKBb (Homo sapiens, UniProt P31751); test: Protein kinase assay ([γ-32P] ATP), PKBb
Experimental: as §1, §2, §3, §4, §5

PKCz = PKCz (Homo sapiens, UniProt Q05513); test: Protein kinase assay ([γ-32P] ATP), PKCz
Experimental: as §1, §2, §3, §4, §5

PLK1 = PLK1 (Homo sapiens, UniProt P53350); test: Protein kinase assay ([γ-32P] ATP), PLK1
Experimental: as §1, §2, §3, §4, §5

Src = Src (Homo sapiens, UniProt P12931); test: Protein kinase assay ([γ-32P] ATP), Src
Chain of Src (P12931 whole entry, species assumed): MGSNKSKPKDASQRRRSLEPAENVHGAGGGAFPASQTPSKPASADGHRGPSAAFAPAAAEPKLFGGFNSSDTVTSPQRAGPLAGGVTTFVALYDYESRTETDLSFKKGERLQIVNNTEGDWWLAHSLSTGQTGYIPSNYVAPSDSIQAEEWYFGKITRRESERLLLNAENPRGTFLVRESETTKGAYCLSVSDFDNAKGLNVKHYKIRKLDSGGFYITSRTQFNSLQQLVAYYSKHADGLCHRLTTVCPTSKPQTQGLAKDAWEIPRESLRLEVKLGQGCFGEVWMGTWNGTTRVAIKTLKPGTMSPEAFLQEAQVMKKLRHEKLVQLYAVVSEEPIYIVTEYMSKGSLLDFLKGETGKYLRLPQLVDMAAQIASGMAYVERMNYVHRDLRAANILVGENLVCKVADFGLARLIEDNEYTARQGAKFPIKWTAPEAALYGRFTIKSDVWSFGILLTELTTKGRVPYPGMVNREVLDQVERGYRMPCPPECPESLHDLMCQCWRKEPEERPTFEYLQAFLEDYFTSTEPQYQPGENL
Experimental: as §1, §2, §3, §4, §5

TrkA = TrkA (Homo sapiens, UniProt P04629); test: Protein kinase assay ([γ-32P] ATP), TrkA
Experimental: as §1, §2, §3, §4, §5

VEG-FR = VEG-FR (Homo sapiens, UniProt P17948); test: Protein kinase assay ([γ-32P] ATP), VEG-FR
Experimental: as §1, §2, §3, §4, §5

ZAP70 = ZAP70 (Homo sapiens, UniProt P43403); test: Protein kinase assay ([γ-32P] ATP), ZAP70
Experimental: as §1, §2, §3, §4, §5

[1] = 0.1 μM of compound I-1, DMSO control = 100%
[2] = 1 μM of compound I-1, DMSO control = 100%

Chain of ABL (P00519 whole entry): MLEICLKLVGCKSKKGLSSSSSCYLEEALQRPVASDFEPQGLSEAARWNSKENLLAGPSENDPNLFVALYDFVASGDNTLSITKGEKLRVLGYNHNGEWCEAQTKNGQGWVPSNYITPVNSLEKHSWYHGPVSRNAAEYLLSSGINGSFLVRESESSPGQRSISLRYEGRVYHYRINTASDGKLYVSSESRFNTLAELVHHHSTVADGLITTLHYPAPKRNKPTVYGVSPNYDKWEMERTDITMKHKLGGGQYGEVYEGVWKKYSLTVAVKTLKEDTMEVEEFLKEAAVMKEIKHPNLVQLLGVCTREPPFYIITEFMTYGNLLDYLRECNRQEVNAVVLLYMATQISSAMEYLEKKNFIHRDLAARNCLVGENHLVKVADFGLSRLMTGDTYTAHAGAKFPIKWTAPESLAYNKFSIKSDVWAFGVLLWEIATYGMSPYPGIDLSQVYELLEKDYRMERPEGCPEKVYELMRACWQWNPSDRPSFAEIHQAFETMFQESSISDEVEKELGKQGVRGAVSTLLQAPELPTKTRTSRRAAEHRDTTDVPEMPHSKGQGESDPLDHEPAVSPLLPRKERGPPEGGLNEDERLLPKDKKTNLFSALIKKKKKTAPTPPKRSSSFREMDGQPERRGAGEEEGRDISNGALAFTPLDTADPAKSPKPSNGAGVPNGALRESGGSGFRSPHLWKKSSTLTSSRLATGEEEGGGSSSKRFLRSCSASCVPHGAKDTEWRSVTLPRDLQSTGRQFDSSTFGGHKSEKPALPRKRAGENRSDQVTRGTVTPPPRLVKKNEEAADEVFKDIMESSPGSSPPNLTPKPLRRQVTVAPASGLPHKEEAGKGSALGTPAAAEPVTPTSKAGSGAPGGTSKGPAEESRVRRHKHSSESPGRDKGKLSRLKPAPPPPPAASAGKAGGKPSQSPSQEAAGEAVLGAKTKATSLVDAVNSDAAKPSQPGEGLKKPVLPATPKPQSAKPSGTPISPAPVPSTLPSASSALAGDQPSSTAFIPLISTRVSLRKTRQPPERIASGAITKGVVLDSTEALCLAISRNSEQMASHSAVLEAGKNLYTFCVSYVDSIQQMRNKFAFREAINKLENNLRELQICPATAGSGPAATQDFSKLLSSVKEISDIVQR

Cc1cccc(C)c1NC(=O)N1C/C=C\COc2cccc(c2)Nc2cc1ncn2 [Compound I-1]
remaining activity at 0.1 µM (ABL; [1]): 7%
remaining activity at 1 µM (ABL; [2]): 2%
remaining activity at 0.1 µM (CK1δ; [1]): 97%
remaining activity at 1 µM (CK1δ; [2]): 99%
remaining activity at 0.1 µM (DAPK1; [1]): 99%
remaining activity at 1 µM (DAPK1; [2]): 85%
remaining activity at 0.1 µM (EIF2AK3; [1]): 97%
remaining activity at 1 µM (EIF2AK3; [2]): 80%
remaining activity at 0.1 µM (MAPKAP-K3; [1]): 108%
remaining activity at 1 µM (MAPKAP-K3; [2]): 89%
remaining activity at 0.1 µM (MARK3; [1]): 90%
remaining activity at 1 µM (MARK3; [2]): 67%
remaining activity at 0.1 µM (MARK4; [1]): 103%
remaining activity at 1 µM (MARK4; [2]): 81%
remaining activity at 0.1 µM (MPSK1; [1]): 110%
remaining activity at 1 µM (MPSK1; [2]): 89%
remaining activity at 0.1 µM (PAK4; [1]): 100%
remaining activity at 1 µM (PAK4; [2]): 78%
remaining activity at 0.1 µM (PAK6; [1]): 101%
remaining activity at 1 µM (PAK6; [2]): 78%
remaining activity at 0.1 µM (PKBb; [1]): 102%
remaining activity at 1 µM (PKBb; [2]): 89%
remaining activity at 0.1 µM (PKCz; [1]): 111%
remaining activity at 1 µM (PKCz; [2]): 82%
remaining activity at 0.1 µM (PLK1; [1]): 104%
remaining activity at 1 µM (PLK1; [2]): 101%
remaining activity at 0.1 µM (Src; [1]): 25%
remaining activity at 1 µM (Src; [2]): 24%
remaining activity at 0.1 µM (TrkA; [1]): 54%
remaining activity at 1 µM (TrkA; [2]): 76%
remaining activity at 0.1 µM (VEG-FR; [1]): 49%
remaining activity at 1 µM (VEG-FR; [2]): 7%
remaining activity at 0.1 µM (ZAP70; [1]): 90%
remaining activity at 1 µM (ZAP70; [2]): 98%
